Experiments:
[1] = Inhibition of purified calf eye lens ALR2 preincubated for 10 mins by UV spectrophotometry; format: tissue-based, Bos taurus, Lens of camera-type eye
Bos taurus [2] = species: Bos taurus; experiment: Inhibition of purified calf kidney ALR1 at 0.6 mM preincubated for 10 mins by UV spectrophotometry; format: tissue-based
Bos taurus [3] = species: Bos taurus; experiment: Inhibition of purified calf eye lens ALR2 at 0.6 mM preincubated for 10 mins by UV spectrophotometry; format: tissue-based; conditions: Lens of camera-type eye
[4] = Inhibition of purified calf kidney ALR1 preincubated for 10 mins by UV spectrophotometry; format: tissue-based, Bos taurus

Row | Compound | IC50 [1] [µM] | inhibition (Bos taurus [2]) [%] | inhibition (Bos taurus [3]) [%] | IC50 [4] [µM]
1 | COC(=O)/C=C1/S/C(=N\C(=O)c2cccc(C)c2)N(c2ccccc2)C1=O | 9.75 | 31.5 |  | 
2 | COC(=O)/C=C1/S/C(=N\C(=O)c2ccc([N+](=O)[O-])cc2)N(c2ccccc2F)C1=O | 36.1 | 49.5 |  | 
3 | COC(=O)/C=C1/S/C(=N\C(=O)c2ccc(Cl)cc2)N(c2cccc(Cl)c2Cl)C1=O | 12.4 | 15.3 |  | 
4 | COC(=O)/C=C1/S/C(=N\C(=O)c2ccc(C)cc2)N(c2cccc(Cl)c2)C1=O |  | 43.5 | 44.3 | 
5 | COC(=O)/C=C1/S/C(=N\C(=O)c2ccc3ccccc3c2)N(c2ccccc2)C1=O | 5.12 | 49.1 |  | 
6 | COC(=O)/C=C1/S/C(=N\C(=O)c2ccccc2C)N(c2cccc(OC)c2)C1=O |  | 27.8 | 43.8 | 
7 | COC(=O)/C=C1/S/C(=N\C(=O)c2cccc(C)c2)N(c2ccccc2OC)C1=O | 6.26 | 32.4 |  | 
8 | COC(=O)/C=C1/S/C(=N\C(=O)c2ccc([N+](=O)[O-])cc2)N(c2ccc(F)c(Cl)c2)C1=O |  | 38.4 | 47.7 | 
9 | COC(=O)/C=C1/S/C(=N\C(=O)c2ccccc2Cl)N(c2ccccc2)C1=O | 5.21 | 19.2 |  | 
10 | CCCC(CCC)C(=O)O [VALPROIC ACID] |  |  |  | 57.4
11 | COC(=O)/C=C1/S/C(=N\C(=O)c2ccccc2Br)N(c2cccc(Cl)c2Cl)C1=O | 9.42 | 51.4 |  | 

Further molecules by falling IC50 [1], results first:

Row | IC50 [1] [µM] | Compound | inhibition (Bos taurus [2]) [%] | inhibition (Bos taurus [3]) [%] | IC50 [4] [µM]
12 | 4.52 | COC(=O)/C=C1/S/C(=N\C(=O)c2cccc(C)c2)N(c2cccc(Cl)c2)C1=O | 42.6 |  | 
13 | 3.19 | COC(=O)/C=C1/S/C(=N\C(=O)c2ccccc2)N(c2cccc3ccccc23)C1=O | 44.3 |  | 
14 | 3.14 | O=C1NC(=O)[C@@]2(CCOc3ccc(F)cc32)N1 [SORBINIL] |  |  | 
15 | 2.82 | COC(=O)/C=C1/S/C(=N\C(=O)c2ccccc2)N(c2ccccc2OC)C1=O | 41.2 |  | 
16 | 2.54 | COC(=O)/C=C1/S/C(=N\C(=O)c2ccccc2Br)N(c2ccc(Cl)cc2Cl)C1=O | 72.7 |  | 
